According to US12577235B2, “Crystalline form of CXCR2 antagonist and application thereof” (Shenzhen Optimum Biological Technology Co., Ltd, priority 2019, dated 2026):

Assays:
[1] = Crystalline form stability assay of crystalline form A - solvent water activity; format: physicochemical; details: for Crystalline form (XRPD): 20° C., 4 days
Experimental: The solutions were centrifuged to give precipitates, and the precipitates were dried under vacuum at 50° C. and subjected to XRPD.

CXCR2 = molecular target: T1, CXCR2 (Homo sapiens, UniProt P25025); test: PathHunter CXCR2 β-arrestin cell assay (CXCL8 agonist, chemiluminescence); format: cell-based; details: listed as crystalline form A of the compound 1
T1 sequence (P25025 1-360): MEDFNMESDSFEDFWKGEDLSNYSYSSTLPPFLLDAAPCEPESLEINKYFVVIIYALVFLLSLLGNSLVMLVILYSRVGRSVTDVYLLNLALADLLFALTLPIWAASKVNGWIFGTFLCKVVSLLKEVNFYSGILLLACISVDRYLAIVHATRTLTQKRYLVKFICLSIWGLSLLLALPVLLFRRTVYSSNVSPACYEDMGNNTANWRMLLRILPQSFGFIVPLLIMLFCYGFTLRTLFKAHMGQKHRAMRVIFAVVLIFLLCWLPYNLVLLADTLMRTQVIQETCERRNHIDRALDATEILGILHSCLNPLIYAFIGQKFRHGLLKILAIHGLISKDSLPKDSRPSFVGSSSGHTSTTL
Experimental: CXCR2 β-arrestin cells (DiscoverX) of PathHunter® were cultured in standard conditions and inoculated at 20 μL/well to a 384-well white microplate. Before testing, the cells were incubated at 37° C. for an appropriate period of time. The test compound was serially 3-fold diluted in DMSO to give 8 concentrations. Shortly before testing, the serially diluted test samples were further diluted with test buffer to 5 folds of the test concentration. 5 μL of further diluted test samples were added to the cells and the cells were incubated at 37° C. for 30 min. The concentration of vehicle was 1%. 5 μL of 6×EC80 agonist (CXCL8) buffer was then added to the cells, and the cells were incubated at 37° C. for 90 min. The test signal was generated by adding 15 μL (50% v/v) of PathHunter detection mixture reagent in one portion and subsequently incubating the cells for 1 h. The chemiluminescence signal of the microplate was read by a PerkinElmer Envision™ instrument. The biological activities of the test compounds were analyzed by CBIS data analysis kit (ChemInnovation, CA), shown as IC50 values.

Stability of the crystalline form in solvents (in words) ([1]; methanol, ethanol, methanol/water, water): stable in the above solvents | Crystalline form (XRPD) ([1]; stirred in ethanol, 100 mg/mL): Crystalline form A | Crystalline form (XRPD) ([1]; stirred in methanol, 100 mg/mL): Crystalline form A | Crystalline form (XRPD) ([1]; stirred in methanol/water = 1/1.5, 100 mg/mL): Crystalline form A | Crystalline form (XRPD) ([1]; stirred in water, 100 mg/mL): Crystalline form A | Antagonism against the CXCR2 receptor (in words) (CXCR2): significant inhibitory effect
Structure (SMILES): O=C(Nc1ccc(Cl)c(S(=O)(=O)[C@H]2CCCNC2)c1O)N[C@@H]1CCCc2cc(C(F)(F)F)oc21 [crystalline form A]
